Results on 21 compounds are retold here after ChEMBL document CHEMBL4340545, “Identification of potent farnesoid X receptor (FXR) antagonist showing favorable PK profile and distribution toward target tissues: Comprehensive understanding of structure-activity relationship of FXR antagonists” (Bioorg Med Chem, 2019).

Structures are written as SMILES. Bounds are passed on as bounds.

Data set [1] is described as follows: Drug concentration in ileum of Sprague-Dawley rat at 30 mg/kg, po dissolved in 40% HP-beta-CD measured after 360 mins by LC-MS/MS analysis. The class given is ADME, organism-based. Conditions: read-out: Drug uptake.
Data set [2] can be described thus: AUC (0 to 360 mins) in Sprague-Dawley rat at 30 mg/5 ml/kg, po dissolved in 40% HP-beta-CD by trapezoidal method. The class given is ADME, organism-based. The arrangement: time < 6 hr, dose 5 ml/kg, route oral. Conditions: in vivo, 30 mg/kg.
The nature of data set [3]: Drug concentration in liver of Sprague-Dawley rat at 30 mg/kg, po dissolved in 40% HP-beta-CD measured after 360 mins by LC-MS/MS analysis. The class given is ADME, organism-based. Conditions: read-out: Drug uptake.
Data set [4] is described as follows: Terminal half life in Sprague-Dawley rat at 1 mg/ml/kg, iv dissolved in 10% HP-beta-CD measured after 60 to 360 min after administration. The class given is ADME, organism-based. Conditions: in vivo, 1 mg/kg.
Data set [5] is described as follows: Oral bioavailability in Sprague-Dawley rat at 30 mg/5 ml/kg dissolved in 40% HP-beta-CD. Conditions: in vivo, 30 mg/kg. Format: ADME, organism-based.
A short description of data set [6]: AUC (0 to 360 mins) in Sprague-Dawley rat at 1 mg/ml/kg, iv dissolved in 10% HP-beta-CD by LC-MS/MS analysis. Format: ADME, organism-based. Also noted: dose 1 mg/ml/kg, time < 6 hr, route intravenous. Conditions: in vivo, 1 mg/kg.
Data set [7] in a line: Drug excretion in Sprague-Dawley rat urine at 1 mg/ml/kg, iv dissolved in 10% HP-beta-CD by LC-MS/MS analysis. Format: ADME, organism-based. Conditions: 1 mg/kg, read-out: Drug excretion.
The nature of data set [8]: Volume of distribution at steady state in Sprague-Dawley rat at 1 mg/ml/kg, iv dissolved in 10% HP-beta-CD. The class given is ADME, organism-based. Conditions: in vivo, 1 mg/kg, read-out: Vdss.
Data set [9] addresses T1, Bile acid receptor (Homo sapiens, UniProt Q96RI1).
T1 sequence (Q96RI1 whole entry): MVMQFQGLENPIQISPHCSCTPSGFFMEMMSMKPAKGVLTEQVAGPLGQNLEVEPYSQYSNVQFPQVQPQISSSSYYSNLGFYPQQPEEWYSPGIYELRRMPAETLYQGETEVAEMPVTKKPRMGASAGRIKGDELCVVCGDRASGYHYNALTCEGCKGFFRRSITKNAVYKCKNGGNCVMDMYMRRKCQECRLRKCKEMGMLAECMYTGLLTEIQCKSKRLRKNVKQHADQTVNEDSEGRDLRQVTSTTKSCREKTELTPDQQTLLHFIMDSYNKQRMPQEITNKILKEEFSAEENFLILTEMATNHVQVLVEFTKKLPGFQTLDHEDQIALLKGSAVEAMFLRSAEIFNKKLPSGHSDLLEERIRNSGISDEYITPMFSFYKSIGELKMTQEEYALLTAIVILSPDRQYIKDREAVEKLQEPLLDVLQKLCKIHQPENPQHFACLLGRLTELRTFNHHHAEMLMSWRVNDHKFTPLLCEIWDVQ
In words: Antagonist activity at human FXR expressed in Huh7 cells assessed as inhibition of CDCA-induced FXR response element driven luciferase activity after 24 hrs. Format: cell-based.

Data set [10] in a line: Tmax in Sprague-Dawley rat at 30 mg/5 ml/kg, po dissolved in 40% HP-beta-CD. Format: ADME, organism-based. Conditions: in vivo, 30 mg/kg.
Data set [11] is described as follows: Cmax in Sprague-Dawley rat at 30 mg/5 ml/kg, po dissolved in 40% HP-beta-CD. The class given is ADME, organism-based. Also noted: dose 5 ml/kg, route oral. Conditions: in vivo, 30 mg/kg.
In another data set the test system is Huh-7. In words: Cytotoxicity against human HuH7 cells assessed as reduction in cell viability incubated for 24 hrs by MTT assay. Format: cell-based. Conditions: Huh-7, 24 h.
The target of data set [12] is T1, Bile acid receptor. In words: Antagonist activity at GST-tagged FXR LBD (unknown origin) assessed as inhibition of GW4064-induced fluorecein-labeled SRC2-2 coactivator recruitment by Lanthascreen TR-FRET assay.
The nature of data set [13]: Ratio of drug concentration in ileum to plasma of Sprague-Dawley rat at 30 mg/kg, po dissolved in 40% HP-beta-CD measured after 360 mins by LC-MS/MS analysis. The class given is ADME, organism-based.
Data set [14] can be described thus: Ratio of drug concentration in liver to plasma of Sprague-Dawley rat at 30 mg/kg, po dissolved in 40% HP-beta-CD measured after 360 mins by LC-MS/MS analysis. Format: ADME, organism-based.

`Cc1ccc2nc([C@H](CC3CCN(C(=O)C(C)C)CC3)N3C(=O)CN(c4ccc(Oc5ccccc5)cc4)C3=O)n(C)c2c1`: the figures for the concentration at 6 h in data set [1] and in data set [3] were 135 ng/g and 225 ng/g, respectively. The results for the area under the curve AUC(0-t) at 6 h in data set [2] and in data set [6] were 146 ng·h/mL and 182 ng·h/mL, respectively. Besides, the half-life in [4] (read-out: beta t1/2) was 2.07 h. In data set [5], the bioavailability stood at 2.76%. Further, the dose excreted in [7] came out at 0.64%. In data set [8], the Vd was found to be 8.9 L/kg. The IC50 at Bile acid receptor [9] is less than 0.001 nM. Besides, the time to peak (Tmax) in [10] was 0.5 h. Further, in data set [11], the Cmax turned out to be 53.4 ng/mL.

Turning to `CCN(CC)C(=O)c1ccc(C[C@@H](c2nc3ccc(C)cc3n2C)N2C(=O)CN(c3ccc(Oc4ccccc4)cc3)C2=O)cc1`, the IC50 in the data set with Huh-7 is more than 100000 nM; on Bile acid receptor [12], 2800 nM; on Bile acid receptor [9] it was 1100 nM.

Consider `Cc1ccc2nc([C@H](CC3CCN(C(=O)C(C)C)CC3)N3C(=O)CN(c4ccc(Oc5ccc(F)cc5)cc4)C3=O)n(C)c2c1`, for which the IC50 is more than 100000 nM with Huh-7, 35 nM on Bile acid receptor [12] and 0.05 nM at Bile acid receptor [9].

On to `Cc1ccc2nc([C@H](Cc3ccc(C#N)cc3)N3C(=O)CN(c4ccc(Oc5ccccc5)cc4)C3=O)n(C)c2c1`, for which the IC50 with Huh-7 was more than 100000 nM; on Bile acid receptor [12], 7100 nM; at Bile acid receptor [9], 781 nM.

As for `Cc1ccc2nc([C@H](CC3CCN(S(=O)(=O)C(C)C)CC3)N3C(=O)CN(c4ccc(Oc5ccccc5)cc4)C3=O)n(C)c2c1`, the results for the IC50 with Huh-7, at Bile acid receptor [12] and on Bile acid receptor [9] were more than 100000 nM, 126000 nM and 59.8 nM, respectively.

For the compound `Cc1ccc2nc([C@H](Cc3ccc(Cl)cc3)N3C(=O)CN(c4ccc(Oc5ccccc5)cc4)C3=O)n(C)c2c1`, the half-inhibitory concentration (IC50) in the data set with Huh-7 is more than 100000 nM; on Bile acid receptor [12], more than 400000 nM; at Bile acid receptor [9], more than 20000 nM.

Turning to `Cc1ccc2nc([C@H](Cc3ccccc3)N3C(=O)CN(c4ccc(Oc5ccccc5)cc4)C3=O)n(C)c2c1`, the values for the IC50 with Huh-7, at Bile acid receptor [12] and at Bile acid receptor [9] were more than 100000 nM, more than 400000 nM and 81 nM, respectively.

In the case of `Cc1ccc2nc([C@H](CC3CCN(C(=O)C(C)C)CC3)NC(=O)Nc3ccc(Oc4ccccc4)cc3)n(C)c2c1`, the IC50 is more than 100000 nM in the data set on Huh-7, more than 400000 nM at Bile acid receptor [12] and more than 20000 nM at Bile acid receptor [9].

As for `Cc1ccc2nc([C@@H](CC3CCN(C(=O)C(C)C)CC3)N3C(=O)CN(c4ccc(Oc5ccccc5)cc4)C3=O)n(C)c2c1`, the IC50 was more than 100000 nM with Huh-7, 2700 nM at Bile acid receptor [12] and 41 nM at Bile acid receptor [9].

Turning to `Cc1ccc2nc([C@H](CC3CCN(C(=O)C(C)C)CC3)NC(=O)c3ccc(Oc4ccccc4)cc3)n(C)c2c1`, the IC50 in the data set with Huh-7 is more than 100000 nM; at Bile acid receptor [12], more than 400000 nM; on Bile acid receptor [9], more than 20000 nM.

As for `Cc1ccc2nc([C@H](CC3CCN(C(=O)NC(C)C)CC3)N3C(=O)CN(c4ccc(Oc5ccccc5)cc4)C3=O)n(C)c2c1`, the IC50 in the data set with Huh-7 is more than 100000 nM; on Bile acid receptor [12], 1500 nM; at Bile acid receptor [9] it was 18.3 nM.

As for `Cc1ccc2nc([C@H](CC3CCN(C(=O)C(C)C)CC3)N3CC(=O)N(c4ccc(Oc5ccccc5)cc4)CC3=O)n(C)c2c1`, the IC50 was more than 100000 nM in the data set with Huh-7, 15000 nM at Bile acid receptor [12] and 859 nM at Bile acid receptor [9].

`Cc1ccc2nc([C@H](Cc3ccc(C(N)=O)cc3)N3C(=O)CN(c4ccc(Oc5ccccc5)cc4)C3=O)n(C)c2c1`: the IC50 with Huh-7 was more than 100000 nM; on Bile acid receptor [12], 27300 nM; at Bile acid receptor [9] it was 6240 nM.

Take `Cc1ccc2nc([C@H](CC3CCN(C(=O)C(C)C)CC3)N3C(=O)CN(c4ccc(Oc5ccccc5)cc4)C3=O)n(CC(C)C)c2c1`: the results for the 50% inhibitory concentration (IC50) in the data set on Huh-7, at Bile acid receptor [12] and on Bile acid receptor [9] were more than 100000 nM, 330 nM and 2.4 nM, respectively.

Regarding `Cc1ccc2nc([C@H](CC3CCN(C(=O)C(C)C)CC3)N3CCN(c4ccc(Oc5ccccc5)cc4)C3=O)n(C)c2c1`, the IC50 in the data set with Huh-7 is more than 100000 nM; at Bile acid receptor [12], 4800 nM; at Bile acid receptor [9], 799 nM.

As to `COc1ccc(Oc2ccc(N3CC(=O)N([C@@H](CC4CCN(C(=O)C(C)C)CC4)c4nc5ccc(C)cc5n4C)C3=O)cc2)cc1`, the results for the concentration at 6 h in data set [1] and in data set [3] were 1370 ng/g and 1540 ng/g, respectively. In addition, the AUC(0-t) at 6 h in [2] is 1580 ng·h/mL; in data set [6], 292 ng·h/mL. Besides, the half-life in data set [4] was determined as 1.37 h. Also, the dose excreted in data set [7] was determined as 0.23%. Further, the IC50 was more than 100000 nM in the data set on Huh-7, 7 nM at Bile acid receptor [12] and less than 0.001 nM on Bile acid receptor [9]. Also, the Vd in data set [8] came out at 3.86 L/kg. Moreover, the values for the partition ratio (Kp) at 6 h in data set [13] and in data set [14] were 13 and 15, respectively. In addition, the Tmax in data set [10] is 2 h.

As to `Cc1ccc2nc([C@H](CC3CCN(C(=O)C(C)C)CC3)N3C(=O)CN(c4ccc(Oc5ccccc5)cc4)C3=O)n(-c3ccc(F)cc3)c2c1`, the figures for the IC50 with Huh-7, on Bile acid receptor [12] and at Bile acid receptor [9] were more than 100000 nM, 2900 nM and 978 nM, respectively.

As to `Cc1ccc2nc([C@H](CC3CCN(C(=O)C(C)C)CC3)N3C(=O)CN(c4ccc(Oc5ccc(Cl)cc5)cc4)C3=O)n(C)c2c1`, the results for the IC50 in the data set on Huh-7, at Bile acid receptor [12] and on Bile acid receptor [9] were more than 100000 nM, 27 nM and 9.3 nM, respectively.

Regarding `Cc1ccc2c(c1)nc([C@H](CC1CCN(C(=O)C(C)C)CC1)N1C(=O)CN(c3ccc(Oc4ccccc4)cc3)C1=O)n2C`, the IC50 in the data set on Huh-7 is more than 100000 nM; on Bile acid receptor [12] it was 51 nM; at Bile acid receptor [9], less than 0.001 nM.

Turning to `Cc1ccc2nc([C@H](Cc3ccc(C(=O)NC(C)C)cc3)N3C(=O)CN(c4ccc(Oc5ccccc5)cc4)C3=O)n(C)c2c1`, the IC50 was more than 100000 nM in the data set on Huh-7, 38700 nM at Bile acid receptor [12] and 2690 nM at Bile acid receptor [9].

In the case of `Cc1ccc2nc([C@H](CC3CCN(C(=O)C(C)C)CC3)N3C(=O)CN(c4ccc(OC5CCCCC5)cc4)C3=O)n(C)c2c1`, the figures for the IC50 with Huh-7, at Bile acid receptor [12] and on Bile acid receptor [9] were 64300 nM, 180 nM and 53 nM, respectively.
